Source: patent publication US8841337B2, “Compounds useful as inhibitors of ATR kinase” (Vertex Pharmaceuticals Incorporated, priority 2011, dated 2014)

Target: T1, full-length ATR (Homo sapiens, UniProt Q13535)
T1 construct: Assays were carried out at 25° C. in the presence of 5 nM full-length ATR
Test: ATR Inhibition Assay (radioactive-phosphate incorporation)
Format: biochemical
Details: Ki(app); 5 nM full-length ATR, 10 μM [γ-33P]ATP, 800 μM target peptide, 25° C.
Experimental: Compounds were screened for their ability to inhibit ATR kinase using a radioactive-phosphate incorporation assay. Assays were carried out in a mixture of 50 mM Tris/HCl (pH 7.5), 10 mM MgCl2 and 1 mM DTT. Final substrate concentrations were 10 μM [γ-33P]ATP (3 mCi 33P ATP/mmol ATP, Perkin Elmer) and 800 μM target peptide (ASELPASQPQPFSAKKK).
Assays were carried out at 25° C. in the presence of 5 nM full-length ATR. An assay stock buffer solution was prepared containing all of the reagents listed above, with the exception of ATP and the test compound of interest. 13.5 μL of the stock solution was placed in a 96 well plate followed by addition of 2 μL of DMSO stock containing serial dilutions of the test compound (typically starting from a final concentration of 15 μM with 3-fold serial dilutions) in duplicate (final DMSO concentration 7%). The plate was pre-incubated for 10 minutes at 25° C. and the reaction initiated by addition of 15 μL [γ-33P]ATP (final concentration 10 μM).
The reaction was stopped after […] by the addition of 30 μL 0.1M phosphoric acid containing 2 mM ATP. […]
After removing mean background values for all of the data points, Ki(app) data were calculated from non-linear regression analysis of the initial rate data using the Prism software package (GraphPad Prism version 3.0cx for Macintosh, GraphPad Software, San Diego Calif., USA).

T1 sequence (Q13535 whole entry): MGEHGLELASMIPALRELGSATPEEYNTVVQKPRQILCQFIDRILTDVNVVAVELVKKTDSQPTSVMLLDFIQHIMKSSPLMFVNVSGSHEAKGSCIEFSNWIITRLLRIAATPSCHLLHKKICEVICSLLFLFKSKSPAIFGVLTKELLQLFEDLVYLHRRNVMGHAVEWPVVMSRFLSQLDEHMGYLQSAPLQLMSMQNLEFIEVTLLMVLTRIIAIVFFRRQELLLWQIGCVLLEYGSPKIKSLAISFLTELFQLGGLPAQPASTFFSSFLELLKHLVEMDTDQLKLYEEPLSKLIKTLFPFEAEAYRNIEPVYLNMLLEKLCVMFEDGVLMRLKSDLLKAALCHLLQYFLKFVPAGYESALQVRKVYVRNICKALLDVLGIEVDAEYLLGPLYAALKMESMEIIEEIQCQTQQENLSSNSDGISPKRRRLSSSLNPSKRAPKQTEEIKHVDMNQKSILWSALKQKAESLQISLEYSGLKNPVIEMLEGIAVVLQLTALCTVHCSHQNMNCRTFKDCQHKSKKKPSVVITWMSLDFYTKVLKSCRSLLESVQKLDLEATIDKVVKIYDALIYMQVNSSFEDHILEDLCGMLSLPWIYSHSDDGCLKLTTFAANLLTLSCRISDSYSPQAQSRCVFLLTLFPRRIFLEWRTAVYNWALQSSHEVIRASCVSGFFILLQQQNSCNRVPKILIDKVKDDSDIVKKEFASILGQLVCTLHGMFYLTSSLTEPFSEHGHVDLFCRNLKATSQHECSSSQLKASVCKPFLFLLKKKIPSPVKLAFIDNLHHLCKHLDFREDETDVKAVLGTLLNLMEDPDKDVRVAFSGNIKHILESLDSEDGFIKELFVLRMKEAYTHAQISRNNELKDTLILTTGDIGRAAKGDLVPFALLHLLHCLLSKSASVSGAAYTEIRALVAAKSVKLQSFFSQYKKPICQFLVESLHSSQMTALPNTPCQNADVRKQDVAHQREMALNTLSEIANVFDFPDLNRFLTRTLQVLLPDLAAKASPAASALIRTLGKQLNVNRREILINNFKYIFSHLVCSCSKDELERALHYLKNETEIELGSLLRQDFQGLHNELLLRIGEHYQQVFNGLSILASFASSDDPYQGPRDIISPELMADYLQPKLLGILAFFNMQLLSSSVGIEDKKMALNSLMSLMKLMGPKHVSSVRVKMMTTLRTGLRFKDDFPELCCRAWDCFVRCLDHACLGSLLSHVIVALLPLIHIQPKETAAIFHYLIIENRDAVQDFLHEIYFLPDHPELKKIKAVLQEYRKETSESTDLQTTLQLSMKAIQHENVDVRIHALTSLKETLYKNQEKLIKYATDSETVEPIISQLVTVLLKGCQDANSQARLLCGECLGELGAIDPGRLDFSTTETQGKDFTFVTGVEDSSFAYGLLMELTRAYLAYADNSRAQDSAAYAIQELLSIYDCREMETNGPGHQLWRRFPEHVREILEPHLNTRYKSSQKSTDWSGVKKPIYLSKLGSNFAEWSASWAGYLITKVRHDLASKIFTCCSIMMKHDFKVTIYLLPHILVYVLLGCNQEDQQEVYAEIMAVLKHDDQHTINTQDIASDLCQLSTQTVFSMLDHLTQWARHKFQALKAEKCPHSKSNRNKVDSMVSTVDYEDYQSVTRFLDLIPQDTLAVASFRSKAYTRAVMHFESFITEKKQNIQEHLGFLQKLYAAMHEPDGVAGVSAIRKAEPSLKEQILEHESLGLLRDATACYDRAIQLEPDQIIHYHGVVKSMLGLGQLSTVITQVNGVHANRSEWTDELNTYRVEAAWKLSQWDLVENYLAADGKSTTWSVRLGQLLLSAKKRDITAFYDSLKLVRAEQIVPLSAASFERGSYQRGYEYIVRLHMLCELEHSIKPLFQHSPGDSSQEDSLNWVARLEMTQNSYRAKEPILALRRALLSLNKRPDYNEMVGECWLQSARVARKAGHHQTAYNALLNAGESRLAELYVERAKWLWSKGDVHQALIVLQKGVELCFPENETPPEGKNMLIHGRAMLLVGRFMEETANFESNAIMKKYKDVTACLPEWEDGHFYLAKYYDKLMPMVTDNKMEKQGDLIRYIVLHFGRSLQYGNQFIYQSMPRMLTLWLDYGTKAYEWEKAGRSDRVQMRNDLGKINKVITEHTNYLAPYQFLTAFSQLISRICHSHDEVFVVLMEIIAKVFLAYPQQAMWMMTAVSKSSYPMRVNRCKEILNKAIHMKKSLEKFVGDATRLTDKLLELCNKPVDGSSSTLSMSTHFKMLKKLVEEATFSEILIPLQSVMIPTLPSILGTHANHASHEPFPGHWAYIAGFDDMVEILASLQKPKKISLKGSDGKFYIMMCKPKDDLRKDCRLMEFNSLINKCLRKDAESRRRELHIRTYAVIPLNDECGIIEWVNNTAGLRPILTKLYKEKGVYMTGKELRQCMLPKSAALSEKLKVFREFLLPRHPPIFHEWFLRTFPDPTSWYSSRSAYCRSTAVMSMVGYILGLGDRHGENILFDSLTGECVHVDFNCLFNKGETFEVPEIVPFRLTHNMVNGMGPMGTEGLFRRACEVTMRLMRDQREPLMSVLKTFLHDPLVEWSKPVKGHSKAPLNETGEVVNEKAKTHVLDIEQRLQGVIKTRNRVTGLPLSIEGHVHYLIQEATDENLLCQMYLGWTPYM

Compound | Ki
CC(C)S(=O)(=O)c1ccc(-c2cnc(N)c(-c3cc(-c4ccccc4)[nH]n3)n2)cc1 [Compound I-1, 5-(4-(isopropylsulfonyl)phenyl)-3-(5-phenyl-1H-pyrazol-3-yl)pyrazin-2-amine] | 2.86 nM
CC(C)S(=O)(=O)c1ccc(-c2cnc(N)c(-c3ncc(-c4ccccc4)o3)n2)cc1 [Compound I-2, 5-(4-(isopropylsulfonyl)phenyl)-3-(5-phenyloxazol-2-yl)pyrazin-2-amine] | 4.03 nM
